In US9149475B2, “Protein kinase C inhibitors and uses thereof” (Rigel Pharmaceuticals, Inc., priority 2009, dated 2015) one finds IC50 data, which are given here for 28 molecules.

Where a name gives a salt, the structure may show the parent alone.

One assay deals with Human primary T cells. As to the kind of experiment: IL-2 ELISA, human primary T cell, anti-CD3+CD28+ (whole cell assay). The assay is classed as cell-based. As to conditions: Homo sapiens, T-cell, 24 h, human primary T cells stimulated with anti-CD3 + anti-CD28, 24 hours. In a few lines:
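IL-2 secreted over 24 h at 37° C was quantified by ELISA after plate-bound αCD3 (1 μg/ml) and αCD28 (5 μg/ml) stimulation, or PMA (0.5 ng/ml) with ionomycin (0.1 μM) as counter-screen. Cells were IL-2-starved primary human T cells, expanded from volunteer PBMC and exposed to compound for 1 hr beforehand.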
For orientation: In an ELISA, binding on a coated surface is turned into a signal by an enzyme label.
Consider `CC(C)N1CCC(Oc2ccc(Nc3ncc(F)c(NC4CC(C)(C)N(C)C(C)(C)C4)n3)cc2OC(F)F)C(F)C1` (stereo not shown) [III-103, N2-(3-(difluoromethoxy)-4-(3-fluoro-1-isopropylpiperidin-4-yloxy)phenyl)-5-fluoro-N4-(1,2,2,6,6-pentamethylpiperidin-4-yl)pyrimidine-2,4-diamine trifluoroacetate salt], for which the IC50 – broadly, the concentration that inhibits the measured activity by half – fell in the range of 0.25 to 0.5 µM. Regarding `CN1C(C)(C)CC(Nc2nc(Nc3cc(F)c(OC4CCCN(S(C)(=O)=O)CC4)c(F)c3)ncc2F)CC1(C)C` (stereo not shown) [III-79, N2-(3,5-difluoro-4-(1-(methylsulfonyl)azepan-4-yloxy)phenyl)-5-fluoro-N4-(1,2,2,6,6-pentamethylpiperidin-4-yl)pyrimidine-2,4-diamine], the IC50 lay in the range of 0.5 to 1 µM. `CN1C(C)(C)CC(Nc2nc(Nc3cc(F)c(OC4CCN(CCO)CC4)c(F)c3)ncc2F)CC1(C)C` [III-60, 2-(4-(2,6-difluoro-4-(5-fluoro-4-(1,2,2,6,6-pentamethylpiperidin-4-ylamino)pyrimidin-2-ylamino)phenoxy)piperidin-1-yl)ethanol]: the 50% inhibitory concentration (IC50) was 0.25 to 0.5 µM.

As for `CN1C(C)(C)CC(Nc2nc(Nc3ccc(OC4CCNCC4)c(OC(F)F)c3)ncc2F)CC1(C)C` [III-27, N2-(3-(difluoromethoxy)-4-(piperidin-4-yloxy)phenyl)-5-fluoro-N4-(1,2,2,6,6-pentamethylpiperidin-4-yl)pyrimidine-2,4-diamine], the IC50 lay within 0.25 to 0.5 µM. The same measure, in the same setting: then `CC1(C)CC(Nc2nc(Nc3ccc4c(c3)OC(C)(C)C(=O)N4CCF)ncc2F)CC(C)(C)N1` [II-9, N2-[2,2-Dimethyl-4-(2-fluoroethyl)-1,4-benzoxazin-3-one-7-yl]-5-fluoro-N4-(2,2,6,6-tetramethylpiperidin-4-yl)-2,4-pyrimidinediamine], with below 0.25 µM; and `CCOc1ccc(Nc2ncc(F)c(NC3CC(C)(C)NC(C)(C)C3)n2)cc1OC(F)F` [Compound I-108, N2-(3-(difluoromethoxy)-4-ethoxyphenyl)-5-fluoro-N4-(2,2,6,6-tetramethylpiperidin-4-yl)pyrimidine-2,4-diamine], with below 0.25 µM. As for `CN1C(C)(C)CC(Nc2nc(Nc3ccc(OC4CCS(=O)(=O)CC4)c(F)c3)ncc2F)CC1(C)C` [III-29, N2-[4-(1,1-Dioxo-hexahydro-1λ6-thiopyran-4-yloxy)-3-fluoro-phenyl]-5-fluoro-N4-(1,2,2,6,6-pentamethyl-piperidin-4-yl)-pyrimidine-2,4-diamine], the IC50 is above 1 µM. Consider `CC(C)N1CCC(Oc2ccc(Nc3ncc(F)c(NC4CC(C)(C)N(C)C(C)(C)C4)n3)cc2F)CC1` [III-18, 5-fluoro-N2-(3-fluoro-4-(1-isopropylpiperidin-4-yloxy)phenyl)-N4-(1,2,2,6,6-pentamethylpiperidin-4-yl)pyrimidine-2,4-diamine], for which the IC50 was below 0.25 µM. For `CCNC(=O)N1CCCC(Oc2c(F)cc(Nc3ncc(F)c(NC4CC(C)(C)NC(C)(C)C4)n3)cc2F)CC1` (stereo not shown) [III-85, 4-(2,6-difluoro-4-(5-fluoro-4-(2,2,6,6-tetramethylpiperidin-4-ylamino)pyrimidin-2-ylamino)phenoxy)-N-ethylazepane-1-carboxamide], the IC50 was above 1 µM. The same measure, in the same setting: next, `CC1(C)CC(Nc2nc(Nc3ccc(OC(C)(C)CN4CCOCC4)c(OC(F)F)c3)ncc2F)CC(C)(C)N1` [Compound I-122, N2-(4-(2-methyl-1-morpholinopropan-2-yloxy)-3-(difluoromethoxy)phenyl)-5-fluoro-N4-(2,2,6,6-tetramethylpiperidin-4-yl)pyrimidine-2,4-diamine]: above 1 µM.

On to `Cn1nnnc1-c1cc(Nc2ncc(F)c(NC3CC(C)(C)NC(C)(C)C3)n2)cc(F)c1F` [III-136, N2-(3,4-difluoro-5-(1-methyl-1H-tetrazol-5-yl)phenyl)-5-fluoro-N4-(2,2,6,6-tetramethylpiperidin-4-yl)pyrimidine-2,4-diamine], for which the IC50 was in the range of 0.25 to 0.5 µM. On to `CN1C(C)(C)CC(Nc2nc(Nc3cnc(OCCN4CCCC4)c(OC(F)F)c3)ncc2F)CC1(C)C` [Compound I-142, N2-(5-(difluoromethoxy)-6-(2-(pyrrolidin-1-yl)ethoxy)pyridin-3-yl)-5-fluoro-N4-(1,2,2,6,6-pentamethylpiperidin-4-yl)pyrimidine-2,4-diamine], for which the IC50 is above 1 µM. `CN1C(C)(C)CC(Nc2nc(Nc3cc(F)c(OC4CCOCC4)c(F)c3)ncc2F)CC1(C)C` [III-25, N2-(3,5-difluoro-4-(tetrahydro-2H-pyran-4-yloxy)phenyl)-5-fluoro-N4-(1,2,2,6,6-pentamethylpiperidin-4-yl)pyrimidine-2,4-diamine]: the IC50 was in the range of 0.5 to 1 µM. On the same count and under the same terms, next, `COc1cc(Nc2ncc(F)c(NC3CC(C)N(C4CC4)C(C)C3)n2)cc(-n2cnnn2)c1` (stereo not shown) [III-7, N^4-(1-cyclopropyl-2,6-dimethylpiperidin-4-yl)-5-fluoro-N2-(3-methoxy-5-(1H-tetrazol-1-yl)phenyl)pyrimidine-2,4-diamine]: below 0.25 µM; `CN1C(C)(C)CC(Nc2nc(Nc3ccc(OC4CCN(CCF)CC4)c(Cl)c3)ncc2F)CC1(C)C` [III-97, N2-(3-chloro-4-(1-(2-fluoroethyl)piperidin-4-yloxy)phenyl)-5-fluoro-N4-(1,2,2,6,6-pentamethylpiperidin-4-yl)pyrimidine-2,4-diamine]: below 0.25 µM. Turning to `CC(C)Nc1cc(Nc2ncc(F)c(NC3CC(C)(C)NC(C)(C)C3)n2)ccc1OC(C)C` [III-61, 5-fluoro-N2-(4-isopropoxy-3-(isopropylamino)phenyl)-N4-(2,2,6,6-tetramethylpiperidin-4-yl)pyrimidine-2,4-diamine], the IC50 is above 1 µM. On to `CN1C(C)(C)CC(Nc2nc(Nc3cc(F)c(F)c(-c4nnnn4C)c3)ncc2F)CC1(C)C` [III-137, N2-(3,4-difluoro-5-(1-methyl-1H-tetrazol-5-yl)phenyl)-5-fluoro-N4-(1,2,2,6,6-pentamethylpiperidin-4-yl)pyrimidine-2,4-diamine], for which the IC50 is below 0.25 µM. Turning to `Cn1nnnc1-c1cc(Nc2ncc(F)c(NC3CC(C)(C)NC(C)(C)C3)n2)ccc1F` [III-120, 5-fluoro-N2-(4-fluoro-3-(1-methyl-1H-tetrazol-5-yl)phenyl)-N4-(2,2,6,6-tetramethylpiperidin-4-yl)pyrimidine-2,4-diamine], the IC50 fell in the range of 0.5 to 1 µM.

As to `CC1(C)CC(Nc2nc(Nc3cc(F)cc(OCCn4cncn4)c3)ncc2F)CC(C)(C)N1` [Compound I-39, N2-(3-(2-(1H-1,2,4-triazol-1-yl)ethoxy)-5-fluorophenyl)-5-fluoro-N4-(2,2,6,6-tetramethylpiperidin-4-yl)pyrimidine-2,4-diamine], the IC50 was above 1 µM. As for `CN1C(C)(C)CC(Nc2nc(Nc3ccc4c(c3)OCC(CN3CCCCC3)O4)ncc2F)CC1(C)C` (stereo not shown) [II-5, 5-fluoro-N2-(2,3-dihydro-2-((piperidin-1-yl)methyl)benzo[b][1,4]dioxin-6-yl)-N4-(1,2,2,6,6-pentamethylpiperidin-4-yl)pyrimidine-2,4-diamine], the half-inhibitory concentration (IC50) is above 1 µM.

Regarding `Cn1nnnc1-c1cc(Nc2ncc(F)c(NC3CC(C)(C)NC(C)(C)C3)n2)ccc1Cl` [III-130, N2-(4-chloro-3-(1-methyl-1H-tetrazol-5-yl)phenyl)-5-fluoro-N4-(2,2,6,6-tetramethylpiperidin-4-yl)pyrimidine-2,4-diamine], the IC50 is below 0.25 µM. Turning to `CC(C)Oc1ncc(Nc2ncc(C#N)c(NC3CC(C)(C)N(C)C(C)(C)C3)n2)cc1-c1nnnn1C(C)C` [Compound I-135, 2-(6-isopropoxy-5-(1-isopropyl-1H-tetrazol-5-yl)pyridin-3-ylamino)-4-(1,2,2,6,6-pentamethylpiperidin-4-ylamino)pyrimidine-5-carbonitrile], the IC50 lay in the range of 0.5 to 1 µM. For `CN1C(C)(C)CC(Nc2nc(Nc3ccc(C4CC4)c(-n4cnnn4)c3)ncc2F)CC1(C)C` [III-119, N^2-(4-cyclopropyl-3-(1H-tetrazol-1-yl)phenyl)-5-fluoro-N^4(1,2,2,6,6-pentamethylpiperidin-4-yl)pyrimidine-2,4-diamine], the IC50 is below 0.25 µM. On to `CN1C(C)(C)CC(Nc2nc(Nc3cccc(-c4nnnn4CCN4CCOCC4)c3)ncc2F)CC1(C)C` [III-76, 5-fluoro-N2-(3-(1-(2-morpholinoethyl)-1H-tetrazol-5-yl)phenyl)-N4-(1,2,2,6,6-pentamethylpiperidin-4-yl)pyrimidine-2,4-diamine], for which the IC50 lay within 0.5 to 1 µM. Consider `COc1cc(NC(C)=O)cc(Nc2ncc(F)c(NC3CC(C)(C)N(C)C(C)(C)C3)n2)c1` [Compound I-110, N2-(3-Acetylamino-5-methoxyphenyl)-5-fluoro-N4-(1,2,2,6,6-pentamethylpiperidin-4-yl)-2,4-pyrimidinediamine], for which the half-maximal inhibitory concentration (IC50) is 0.5 to 1 µM. Turning to `CC1(C)CC(Nc2nc(Nc3ccc4c(c3)OCC(CN3CCCCC3)O4)ncc2F)CC(C)(C)N1` (stereo not shown) [II-7, 5-fluoro-N2-(2,3-dihydro-2-((piperidin-1-yl)methyl)benzo[b][1,4]dioxin-6-yl)-N4-(2,2,6,6-tetramethylpiperidin-4-yl)pyrimidine-2,4-diamine], the half-inhibitory concentration (IC50) is above 1 µM.

Still in this assay, the particulars now being: human primary T cells stimulated with anti-CD3 + anti-CD28, 24 hours.
Turning to `CC1(C)CC(Nc2nc(Nc3cccc(-n4nnnc4SCC(F)(F)F)c3)ncc2C#N)CC(C)(C)N1` [Compound I-79, 5-cyano-N4-(2,2,6,6-tetramethylpiperidin-4-yl)-N2-{3-[5-(2,2,2-trifluoroethyl)thio]-1H-tetrazol-1-yl}phenyl-2,4-pyrimidinediamine], the half-maximal inhibitory concentration (IC50) is below 0.25 µM. For the molecule `CN1C(C)(C)CC(Nc2nc(Nc3cccc(-n4nnnc4SCC(F)(F)F)c3)ncc2C(N)=O)CC1(C)C` [Compound I-71, 5-aminocarbonyl-N4-(1,2,2,6,6-pentamethylpiperidin-4-yl)-N2-{3-[5-(2,2,2-trifluoroethyl)thio]-1H-tetrazol-1-yl}phenyl-2,4-pyrimidinediamine], the half-inhibitory concentration (IC50) was in the range of 0.25 to 0.5 µM.
